Experimental data taken from US7763728B2, “Tetrahydropyridothiophenes” (4SC AG, priority 2005, dated 2010).
pIC50: −log10 of the molar value.

Legend:
[1] = tested on: RKO colon adenocarcinoma cells (RKOp27) arrested by the expression of ectopic p27Kip1; test: Alamar Blue cell viability assay on RKOp27 cells arrested by p27Kip1 expression induced by Ponasterone A; assay type: cell-based; conditions: Homo sapiens, 72 hours incubation, 10 μM Ponasterone A, read-out: IC50 RKO p27 induced (arrested)
Protocol: To determine the cell cycle specific mode of action, subclones of RKO colon adenocarcinoma cells (RKOp27 or RKOp21 as described by Schmidt et al. in Oncogene 19, 2423-2429; 2000) are seeded into 96 well flat bottom plates at a density of 15000 cells per well in a volume of 50 μl per well in DMEM growth medium with 10% FCS containing 10 μM Ponasterone A. 24 hours after seeding the 50 μl each of the compound dilutions in DMEM medium are added into each well of the 96 Well plate. Each compound dilution is tested as quadruplicates. Wells containing untreated control cells are filled with 50 μl DMEM medium containing 1% DMSO. The cells are then incubated with the substances for 72 hours at 37° C. in a humidified atmosphere containing 5% carbon dioxide. To determine the viability of the cells, 10 μl of an Alamar Blue solution (Biosource) are added and the fluorescence was measured at an extinction of 544 nm and an emission of 590 nm. For the calculation of the cell viability the emission value from untreated cells is set as 100% viability and the emission rates of treated cells are set in relation to the values of untreated cells. Viabilities are expressed as % values. Viability is compared of proliferating cells grown in the absence of the inducer Ponasterone A, versus viability of cells arrested by the expression of ectopic p27Kip1 induced by Ponasterone A.

[2] = tested on: RKO (RKOp27) human colon adenocarcinoma cells; test: Alamar Blue cell viability assay, anti-proliferative/cytotoxic activity on proliferating (uninduced) RKOp27 cells; assay type: cell-based; conditions: 72 hours incubation, absence of the inducer Ponasterone A, read-out: IC50 RKO p27 uninduced (proliferating)
Protocol: The anti-proliferative/cytotoxic activity of the compounds described herein, can be tested on subclones of RKO (RKOp27) human colon adenocarcinoma cells (Schmidt et al., Oncogene 19, 2423-2429; 2000) using the Alamar Blue cell viability assay (described in O'Brien et al. Eur J Biochem 267, 5421-5426, 2000). The compounds are dissolved as 20 mM solutions in dimethylsulfoxide (DMSO) and subsequently diluted in semi-logarithmic steps. DMSO dilutions are further diluted 1:100 into Dulbecco's modified Eagle's medium (DMEM) containing 10% fetal calf serum to a final concentration twice as much as the final concentration in the test. RKO subclones are seeded into 96 well flat bottom plates at a density of 5000 cells per well in a volume of 50 μl per well. 24 hours after seeding the 50 μl each of the compound dilutions in DMEM medium are added into each well of the 96 Well plate. Each compound dilution is tested as quadruplicates. Wells containing untreated control cells are filled with 50 μl DMEM medium containing 1% DMSO. The cells are then incubated with the substances for 72 hours at 37° C. in a humified atmosphere containing 5% carbon dioxide. To determine the viability of the cells, 10 μl of an Alamar Blue solution (Biosource) are added and the fluorescence is measured at an extinction of 544 nm and an emission of 590 nm. For the calculation of the cell viability the emission value from untreated cells is set as 100% viability and the emission rates of treated cells are set in relation to the values of untreated cells. Viabilities are expressed as % values.
The corresponding IC50 values of the compounds for anti-proliferative/cytotoxic activity are determined from the concentration-effect curves.
Representative IC50 values for anti-proliferation/cytotoxicity determined in the mentioned assay follow from the following table A, in which the numbers of the compounds correspond to the numbers of the examples.

| Compound | pIC50 [1] | pIC50 [2] |
| --- | --- | --- |
| COc1ccccc1CCC(=O)Nc1sc2c(c1C#N)CCN(C(=O)Cn1cc(C)nc1C)C2 [Example 147, N-{3-Cyano-6-[2-(2,4-dimethyl-imidazol-1-yl)-ethanoyl]-4,5,6,7-tetrahydro-thieno[2,3-c]pyridin-2-yl}-3-(2-methoxy-phenyl)-propionamide] | ≤ 5.00 | ≥ 6.52 |
| CCOc1ccccc1CCC(=O)Nc1sc2c(c1C#N)CCN(C(=O)COC)C2 [Example 19, N-[3-Cyano-6-(2-methoxy-ethanoyl)-4,5,6,7-tetrahydro-thieno[2,3-c]pyridin-2-yl]-3-(2-ethoxy-phenyl)-propionamide] | < 4.00 | ≥ 6.52 |
| CCOc1ccccc1CCC(=O)Nc1sc2c(c1C#N)CCN(C(=O)CCc1ccncc1)C2 [Example 123] | ≤ 5.00 | ≥ 6.52 |
| COc1cccc(CCC(=O)Nc2sc3c(c2C#N)CCN(C(=O)CC(C)n2ccnc2)C3)c1 (racemic) [Example 57, N-[3-Cyano-6-((RS)-3-imidazol-1-yl-butanoyl)-4,5,6,7-tetrahydro-thieno[2,3-c]pyridin-2-yl]-3-(3-methoxy-phenyl)-propionamide] | ≤ 4.40 | 5.70 to 6.52 |
| COc1cccc(CCC(=O)Nc2sc3c(c2C#N)CCN(C(=O)CCc2nccn2C)C3)c1 [Example 115, N-{3-Cyano-6-[3-(1-methyl-1H-imidazol-2-yl)-propanoyl]-4,5,6,7-tetrahydro-thieno[2,3-c]pyridin-2-yl}-3-(3-methoxy-phenyl)-propionamide] | ≤ 4.40 | 5.70 to 6.52 |
| COc1ccccc1CCC(=O)Nc1sc2c(c1C#N)CCN(C(=O)CCc1ccccn1)C2 [Example 95, N-[3-Cyano-6-(3-pyridin-2-yl-propanoyl)-4,5,6,7-tetrahydro-thieno[2,3-c]pyridin-2-yl]-3-(2-methoxy-phenyl)-propionamide] | < 4.00 | ≥ 6.52 |
| COc1ccccc1C(C)CC(=O)Nc1sc2c(c1C#N)CCN(C(=O)CCc1cccnc1)C2 (racemic) [Example 77, (RS)—N-[3-Cyano-6-(3-pyridin-3-yl-propanoyl)-4,5,6,7-tetrahydro-thieno[2,3-c]pyridin-2-yl]-3-(2-methoxy-phenyl)-butyramide] | < 4.00 | 5.70 to 6.52 |
| CCOc1ccccc1CCC(=O)Nc1sc2c(c1C#N)CCN(C(=O)CCc1nccn1C)C2 [Example 117, N-{3-Cyano-6-[3-(1-methyl-1H-imidazol-2-yl)-propanoyl]-4,5,6,7-tetrahydro-thieno[2,3-c]pyridin-2-yl}-3-(2-ethoxy-phenyl)-propionamide] | ≤ 5.00 | ≥ 6.52 |
| COc1ccccc1C(C)CC(=O)Nc1sc2c(c1C#N)CCN(C(=O)CCc1ccncc1)C2 (racemic) [Example 120, (RS)—N-[3-Cyano-6-(3-pyridin-4-yl-propanoyl)-4,5,6,7-tetrahydro-thieno[2,3-c]pyridin-2-yl]-3-(2-methoxy-phenyl)-butyramide] | ≤ 5.00 | ≥ 6.52 |
| CCOc1ccccc1CCC(=O)Nc1sc2c(c1C#N)CCN(C(=O)Cn1cnc(C)c1)C2 [Example 140, N-{3-Cyano-6-[2-(4-methyl-imidazol-1-yl)-ethanoyl]-4,5,6,7-tetrahydro-thieno[2,3-c]pyridin-2-yl}-3-(2-ethoxy-phenyl)-propionamide] | ≤ 4.40 | ≥ 6.52 |
| CCCC(=O)N1CCc2c(sc(NC(=O)CCc3cccc(OC)c3)c2C#N)C1 [Example 23, N-(6-Butyryl-3-cyano-4,5,6,7-tetrahydro-thieno[2,3-c]pyridin-2-yl)-3-(3-methoxy-phenyl)-propionamide] | < 4.00 | ≥ 6.52 |
| COc1cccc(C(C)CC(=O)Nc2sc3c(c2C#N)CCN(C(=O)Cc2cccnc2)C3)c1 (racemic) [Example 64, (RS)—N-[3-Cyano-6-(2-pyridin-3-yl-ethanoyl)-4,5,6,7-tetrahydro-thieno[2,3-c]pyridin-2-yl]-3-(3-methoxy-phenyl)-butyramide] | ≤ 4.40 | 5.70 to 6.52 |
| COc1cccc(CCC(=O)Nc2sc3c(c2C#N)CCN(C(=O)Cn2cnc(C)c2)C3)c1 [Example 138, N-{3-Cyano-6-[2-(4-methyl-imidazol-1-yl)-ethanoyl]-4,5,6,7-tetrahydro-thieno[2,3-c]pyridin-2-yl}-3-(3-methoxy-phenyl)-propionamide] | ≤ 4.40 | 5.70 to 6.52 |

Now from value to compound, other results behind:

| pIC50 [1] | Compound | pIC50 [2] |
| --- | --- | --- |
| ≤ 5.00 | COc1ccccc1C(C)CC(=O)Nc1sc2c(c1C#N)CCN(C(=O)CCn1cnc(C)c1)C2 (racemic) [Example 152, (RS)—N-{3-Cyano-6-[3-(4-methyl-imidazol-1-yl)-propanoyl]-4,5,6,7-tetrahydro-thieno[2,3-c]pyridin-2-yl}-3-(2-methoxy-phenyl)-butyramide] | 5.70 to 6.52 |
| < 4.00 | CCCC(=O)N1CCc2c(sc(NC(=O)CCc3ccccc3OCC)c2C#N)C1 [Example 24, N-(6-Butyryl-3-cyano-4,5,6,7-tetrahydro-thieno[2,3-c]pyridin-2-yl)-3-(2-ethoxy-phenyl)-propionamide] | ≥ 6.52 |
| < 4.00 | COc1ccccc1C(C)CC(=O)Nc1sc2c(c1C#N)CCN(C(=O)Cc1cccnc1)C2 (racemic) [Example 66, (RS)—N-[3-Cyano-6-(2-pyridin-3-yl-ethanoyl)-4,5,6,7-tetrahydro-thieno[2,3-c]pyridin-2-yl]-3-(2-methoxy-phenyl)-butyramide] | ≥ 6.52 |
| ≤ 4.40 | COc1ccccc1C(C)CC(=O)Nc1sc2c(c1C#N)CCN(C(=O)Cc1ccncc1)C2 (racemic) [Example 70, (RS)—N-[3-Cyano-6-(2-pyridin-4-yl-ethanoyl)-4,5,6,7-tetrahydro-thieno[2,3-c]pyridin-2-yl]-3-(2-methoxy-phenyl)-butyramide] | ≥ 6.52 |
| < 4.00 | CCOc1cccc(C(C)CC(=O)Nc2sc3c(c2C#N)CCN(C(=O)Cc2ccncc2)C3)c1 (racemic) [Example 69, (RS)—N-[3-Cyano-6-(2-pyridin-4-yl-ethanoyl)-4,5,6,7-tetrahydro-thieno[2,3-c]pyridin-2-yl]-3-(3-ethoxy-phenyl)-butyramide] | 5.70 to 6.52 |
| ≤ 5.00 | CCOc1ccccc1C(C)CC(=O)Nc1sc2c(c1C#N)CCN(C(=O)CCc1ccncc1)C2 (racemic) [Example 121, (RS)—N-[3-Cyano-6-(3-pyridin-4-yl-propanoyl)-4,5,6,7-tetrahydro-thieno[2,3-c]pyridin-2-yl]-3-(2-ethoxy-phenyl)-butyramide] | 5.70 to 6.52 |
| ≤ 4.40 | COc1ccc(C)cc1CCC(=O)Nc1sc2c(c1C#N)CCN(C(=O)Cn1cnc(C)c1)C2 [Example 141, N-{3-Cyano-6-[2-(4-methyl-imidazol-1-yl)-ethanoyl]-4,5,6,7-tetrahydro-thieno[2,3-c]pyridin-2-yl}-3-(2-methoxy-5-methyl-phenyl)-propionamide] | 5.70 to 6.52 |
| ≤ 4.40 | CCOc1ccccc1C(C)CC(=O)Nc1sc2c(c1C#N)CCN(C(=O)CCc1cccnc1)C2 (racemic) [Example 78, (RS)—N-[3-Cyano-6-(3-pyridin-3-yl-propanoyl)-4,5,6,7-tetrahydro-thieno[2,3-c]pyridin-2-yl]-3-(2-ethoxy-phenyl)-butyramide] | 5.70 to 6.52 |
| ≤ 5.00 | CCOc1ccccc1CCC(=O)Nc1sc2c(c1C#N)CCN(C(=O)Cc1ccccn1)C2 [Example 26, N-[3-Cyano-6-(2-pyridin-2-yl-ethanoyl)-4,5,6,7-tetrahydro-thieno[2,3-c]pyridin-2-yl]-3-(2-ethoxy-phenyl)-propionamide] | ≥ 6.52 |
| ≤ 4.40 | COc1ccccc1CCC(=O)Nc1sc2c(c1C#N)CCN(C(=O)Cn1ccnc1C)C2 [Example 130, N-{3-Cyano-6-[2-(2-methyl-imidazol-1-yl)-ethanoyl]-4,5,6,7-tetrahydro-thieno[2,3-c]pyridin-2-yl}-3-(2-methoxy-phenyl)-propionamide] | ≥ 6.52 |
